ChEMBL document CHEMBL5291721, “A preclinical secondary pharmacology resource illuminates target-adverse drug reaction associations of marketed drugs” (Nat Commun, 2023)

What was measured:
[1] = target: T1, Alpha-2C adrenergic receptor (Homo sapiens, UniProt P18825); type: functional
T1 sequence (P18825 whole entry): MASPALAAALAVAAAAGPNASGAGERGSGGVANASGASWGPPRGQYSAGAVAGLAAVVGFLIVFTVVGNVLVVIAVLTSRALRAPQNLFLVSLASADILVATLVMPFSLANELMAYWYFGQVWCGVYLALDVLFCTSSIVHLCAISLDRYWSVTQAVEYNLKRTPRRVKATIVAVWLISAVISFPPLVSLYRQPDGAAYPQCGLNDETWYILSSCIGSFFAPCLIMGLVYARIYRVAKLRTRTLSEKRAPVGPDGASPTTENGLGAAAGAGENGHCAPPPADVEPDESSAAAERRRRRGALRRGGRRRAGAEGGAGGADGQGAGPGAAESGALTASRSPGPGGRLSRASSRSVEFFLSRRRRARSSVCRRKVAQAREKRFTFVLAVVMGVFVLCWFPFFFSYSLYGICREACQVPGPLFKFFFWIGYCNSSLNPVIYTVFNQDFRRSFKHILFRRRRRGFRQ

Vasopressin V2 receptor = Vasopressin V2 receptor (Homo sapiens, UniProt P30518)
B2 bradykinin receptor = target: T2, B2 bradykinin receptor (Homo sapiens, UniProt P30411)
T2 sequence (P30411 whole entry): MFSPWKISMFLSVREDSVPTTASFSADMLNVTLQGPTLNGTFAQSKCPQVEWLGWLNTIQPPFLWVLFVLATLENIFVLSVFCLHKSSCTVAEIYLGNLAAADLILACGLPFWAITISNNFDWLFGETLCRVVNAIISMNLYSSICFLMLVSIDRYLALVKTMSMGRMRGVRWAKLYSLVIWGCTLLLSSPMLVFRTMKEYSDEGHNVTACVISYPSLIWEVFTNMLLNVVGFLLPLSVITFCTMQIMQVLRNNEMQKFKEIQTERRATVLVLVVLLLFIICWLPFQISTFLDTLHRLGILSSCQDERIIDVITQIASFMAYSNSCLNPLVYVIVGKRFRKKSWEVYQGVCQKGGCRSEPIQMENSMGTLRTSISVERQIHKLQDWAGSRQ

[2] = target: T3, Cholecystokinin receptor type A (Homo sapiens, UniProt P32238)
T3 sequence (P32238 whole entry): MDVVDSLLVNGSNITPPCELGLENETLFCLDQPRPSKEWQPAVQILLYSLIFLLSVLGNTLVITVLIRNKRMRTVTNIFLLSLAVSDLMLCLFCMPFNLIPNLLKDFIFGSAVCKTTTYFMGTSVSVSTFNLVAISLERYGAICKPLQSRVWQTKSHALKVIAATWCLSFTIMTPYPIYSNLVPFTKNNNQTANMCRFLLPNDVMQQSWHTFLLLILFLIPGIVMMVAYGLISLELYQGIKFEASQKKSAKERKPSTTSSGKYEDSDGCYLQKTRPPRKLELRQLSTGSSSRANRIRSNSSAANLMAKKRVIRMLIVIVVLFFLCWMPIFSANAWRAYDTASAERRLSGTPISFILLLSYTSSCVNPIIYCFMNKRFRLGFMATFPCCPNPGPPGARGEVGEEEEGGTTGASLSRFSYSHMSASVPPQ

[3] = target: T4, Muscarinic acetylcholine receptor M2 (Homo sapiens, UniProt P08172); type: functional, cell-based
T4 sequence (P08172 whole entry): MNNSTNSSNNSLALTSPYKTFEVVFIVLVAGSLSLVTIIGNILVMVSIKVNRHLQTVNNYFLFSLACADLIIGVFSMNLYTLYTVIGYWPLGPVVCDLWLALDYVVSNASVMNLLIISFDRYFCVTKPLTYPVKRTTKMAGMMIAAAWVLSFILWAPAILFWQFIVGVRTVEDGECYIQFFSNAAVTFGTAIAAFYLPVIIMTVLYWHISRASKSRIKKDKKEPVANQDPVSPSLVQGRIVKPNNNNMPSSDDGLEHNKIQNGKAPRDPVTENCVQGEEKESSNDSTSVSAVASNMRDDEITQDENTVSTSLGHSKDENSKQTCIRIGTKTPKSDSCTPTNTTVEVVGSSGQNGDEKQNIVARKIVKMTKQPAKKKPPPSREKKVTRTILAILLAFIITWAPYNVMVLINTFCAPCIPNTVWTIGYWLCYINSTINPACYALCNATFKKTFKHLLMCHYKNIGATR

[4] = target: Muscarinic acetylcholine receptor M3 (Homo sapiens, UniProt P20309)
[5] = target: Neuronal acetylcholine receptor subunit alpha-4 (Homo sapiens, UniProt P43681)
Endothelin-1 receptor = target: T5, Endothelin-1 receptor (Homo sapiens, UniProt P25101)
T5 sequence (P25101 whole entry): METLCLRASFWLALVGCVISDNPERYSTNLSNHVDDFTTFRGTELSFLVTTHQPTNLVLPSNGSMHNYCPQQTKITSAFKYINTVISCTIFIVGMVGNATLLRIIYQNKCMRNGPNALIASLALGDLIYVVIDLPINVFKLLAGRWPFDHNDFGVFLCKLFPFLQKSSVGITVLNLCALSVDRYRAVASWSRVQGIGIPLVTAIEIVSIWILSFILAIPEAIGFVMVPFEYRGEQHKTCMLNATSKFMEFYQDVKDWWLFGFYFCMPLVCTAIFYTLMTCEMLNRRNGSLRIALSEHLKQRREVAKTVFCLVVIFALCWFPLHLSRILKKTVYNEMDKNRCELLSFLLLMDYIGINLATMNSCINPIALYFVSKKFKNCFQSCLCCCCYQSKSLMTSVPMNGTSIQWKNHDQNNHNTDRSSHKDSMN

Histamine H2 receptor = Histamine H2 receptor (Homo sapiens, UniProt P25021); type: functional, cell-based
[6] = target: 5-hydroxytryptamine receptor 2A (Homo sapiens, UniProt P28223); type: functional, cell-based
Motilin receptor = Motilin receptor (Homo sapiens, UniProt O43193)
Mu-type opioid receptor = Mu-type opioid receptor (Homo sapiens, UniProt P35372); assay: biochemical; type: functional
[7] = target: Sodium-dependent dopamine transporter (Homo sapiens, UniProt Q01959)
D(3) dopamine receptor = D(3) dopamine receptor (Homo sapiens, UniProt P35462)
[8] = target: Beta-2 adrenergic receptor (Homo sapiens, UniProt P07550)
Further: assay procedure not described here.

Sequence of D(3) dopamine receptor (P35462 whole entry): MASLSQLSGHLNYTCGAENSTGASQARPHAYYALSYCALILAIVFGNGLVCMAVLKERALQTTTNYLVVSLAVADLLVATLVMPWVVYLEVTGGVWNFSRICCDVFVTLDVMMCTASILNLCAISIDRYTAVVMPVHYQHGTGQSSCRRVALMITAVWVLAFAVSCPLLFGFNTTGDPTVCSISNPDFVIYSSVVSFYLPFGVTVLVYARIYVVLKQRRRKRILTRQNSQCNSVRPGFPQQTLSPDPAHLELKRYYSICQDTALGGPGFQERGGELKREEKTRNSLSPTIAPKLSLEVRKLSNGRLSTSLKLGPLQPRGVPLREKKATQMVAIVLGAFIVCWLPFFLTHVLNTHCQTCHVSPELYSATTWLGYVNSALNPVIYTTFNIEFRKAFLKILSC
Sequence of Histamine H2 receptor (P25021 whole entry): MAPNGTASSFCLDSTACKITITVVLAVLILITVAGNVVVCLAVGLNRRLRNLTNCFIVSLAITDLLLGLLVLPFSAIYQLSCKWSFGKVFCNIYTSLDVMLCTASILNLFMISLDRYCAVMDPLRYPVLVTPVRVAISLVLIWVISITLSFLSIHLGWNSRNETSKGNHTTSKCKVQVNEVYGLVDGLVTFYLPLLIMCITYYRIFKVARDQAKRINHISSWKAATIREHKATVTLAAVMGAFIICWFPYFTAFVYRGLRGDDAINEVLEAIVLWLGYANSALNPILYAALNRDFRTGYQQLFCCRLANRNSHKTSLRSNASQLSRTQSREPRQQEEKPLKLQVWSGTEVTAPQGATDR
Sequence of Neuronal acetylcholine receptor subunit alpha-4 (P43681 whole entry): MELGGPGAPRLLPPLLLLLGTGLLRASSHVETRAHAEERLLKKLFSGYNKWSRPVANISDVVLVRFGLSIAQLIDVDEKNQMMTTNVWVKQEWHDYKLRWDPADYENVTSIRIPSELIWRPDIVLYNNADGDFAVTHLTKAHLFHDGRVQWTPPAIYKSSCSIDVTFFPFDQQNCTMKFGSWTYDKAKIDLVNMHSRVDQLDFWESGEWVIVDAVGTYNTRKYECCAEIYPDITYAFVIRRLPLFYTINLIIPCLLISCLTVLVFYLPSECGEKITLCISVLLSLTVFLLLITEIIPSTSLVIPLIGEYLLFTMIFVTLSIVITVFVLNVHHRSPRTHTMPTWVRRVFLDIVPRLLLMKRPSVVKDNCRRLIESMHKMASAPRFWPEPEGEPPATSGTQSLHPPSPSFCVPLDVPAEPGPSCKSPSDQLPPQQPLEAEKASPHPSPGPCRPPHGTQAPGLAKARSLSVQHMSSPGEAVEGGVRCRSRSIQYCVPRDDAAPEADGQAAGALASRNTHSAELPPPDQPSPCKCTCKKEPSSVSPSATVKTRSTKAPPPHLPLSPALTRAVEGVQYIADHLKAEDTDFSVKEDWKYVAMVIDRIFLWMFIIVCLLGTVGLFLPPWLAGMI
Sequence of Mu-type opioid receptor (P35372 whole entry): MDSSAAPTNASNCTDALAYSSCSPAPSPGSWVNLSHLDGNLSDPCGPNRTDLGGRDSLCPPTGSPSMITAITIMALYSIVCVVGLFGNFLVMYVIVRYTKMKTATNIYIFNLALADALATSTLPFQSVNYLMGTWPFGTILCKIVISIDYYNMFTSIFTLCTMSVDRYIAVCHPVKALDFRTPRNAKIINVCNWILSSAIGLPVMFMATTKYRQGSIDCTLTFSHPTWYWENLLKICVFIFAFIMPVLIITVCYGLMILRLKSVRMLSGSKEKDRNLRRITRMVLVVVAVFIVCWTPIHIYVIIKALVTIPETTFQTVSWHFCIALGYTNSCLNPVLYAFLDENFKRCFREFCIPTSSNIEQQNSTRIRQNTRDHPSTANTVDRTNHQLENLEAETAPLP
Sequence of Motilin receptor (O43193 whole entry): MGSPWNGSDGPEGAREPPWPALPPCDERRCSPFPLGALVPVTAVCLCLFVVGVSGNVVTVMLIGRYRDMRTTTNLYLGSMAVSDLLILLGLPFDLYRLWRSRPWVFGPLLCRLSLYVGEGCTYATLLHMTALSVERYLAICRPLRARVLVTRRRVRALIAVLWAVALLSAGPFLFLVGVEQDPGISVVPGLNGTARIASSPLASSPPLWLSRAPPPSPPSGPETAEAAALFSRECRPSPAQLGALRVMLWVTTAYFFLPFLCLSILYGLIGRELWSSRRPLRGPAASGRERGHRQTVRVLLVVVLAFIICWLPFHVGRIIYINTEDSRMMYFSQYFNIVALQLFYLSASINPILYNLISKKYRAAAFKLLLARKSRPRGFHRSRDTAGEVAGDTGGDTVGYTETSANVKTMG
Sequence of 5-hydroxytryptamine receptor 2A (P28223 whole entry): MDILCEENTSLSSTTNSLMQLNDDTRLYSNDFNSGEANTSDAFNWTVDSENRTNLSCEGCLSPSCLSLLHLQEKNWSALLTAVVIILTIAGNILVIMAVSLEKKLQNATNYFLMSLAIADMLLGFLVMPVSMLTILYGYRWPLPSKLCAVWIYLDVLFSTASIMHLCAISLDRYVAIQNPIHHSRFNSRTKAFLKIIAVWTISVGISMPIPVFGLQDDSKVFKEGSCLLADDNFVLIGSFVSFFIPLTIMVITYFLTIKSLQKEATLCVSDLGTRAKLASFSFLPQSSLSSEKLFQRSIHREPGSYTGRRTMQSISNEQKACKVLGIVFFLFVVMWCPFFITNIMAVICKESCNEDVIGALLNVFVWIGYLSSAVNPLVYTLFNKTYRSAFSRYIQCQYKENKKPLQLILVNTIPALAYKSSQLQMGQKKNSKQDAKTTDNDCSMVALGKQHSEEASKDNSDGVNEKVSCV
Sequence of Muscarinic acetylcholine receptor M3 (P20309 whole entry): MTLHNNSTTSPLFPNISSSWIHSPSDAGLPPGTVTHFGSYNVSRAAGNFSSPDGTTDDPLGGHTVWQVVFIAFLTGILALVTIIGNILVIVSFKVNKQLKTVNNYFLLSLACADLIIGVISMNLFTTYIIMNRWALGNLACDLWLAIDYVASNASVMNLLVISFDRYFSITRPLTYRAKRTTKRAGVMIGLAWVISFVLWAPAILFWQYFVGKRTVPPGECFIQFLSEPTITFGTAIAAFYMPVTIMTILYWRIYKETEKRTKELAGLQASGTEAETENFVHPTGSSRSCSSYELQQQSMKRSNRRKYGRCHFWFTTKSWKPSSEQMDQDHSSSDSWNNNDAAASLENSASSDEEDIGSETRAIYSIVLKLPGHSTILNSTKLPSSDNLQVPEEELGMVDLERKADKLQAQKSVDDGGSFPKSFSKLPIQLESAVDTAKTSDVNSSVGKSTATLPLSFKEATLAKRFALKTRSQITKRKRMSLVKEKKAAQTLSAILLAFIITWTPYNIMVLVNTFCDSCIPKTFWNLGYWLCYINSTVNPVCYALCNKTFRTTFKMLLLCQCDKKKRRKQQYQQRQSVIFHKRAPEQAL
Sequence of Vasopressin V2 receptor (P30518 whole entry): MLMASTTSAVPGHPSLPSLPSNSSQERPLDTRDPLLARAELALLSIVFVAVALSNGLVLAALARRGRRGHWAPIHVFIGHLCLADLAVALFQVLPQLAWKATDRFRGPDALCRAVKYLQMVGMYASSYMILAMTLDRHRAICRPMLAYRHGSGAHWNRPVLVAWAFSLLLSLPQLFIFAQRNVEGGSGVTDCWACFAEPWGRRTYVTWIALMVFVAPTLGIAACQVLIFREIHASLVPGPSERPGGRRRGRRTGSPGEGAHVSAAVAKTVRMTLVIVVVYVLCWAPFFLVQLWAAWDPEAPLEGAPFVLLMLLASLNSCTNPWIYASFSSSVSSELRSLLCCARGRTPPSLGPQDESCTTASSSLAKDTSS
Sequence of Beta-2 adrenergic receptor (P07550 whole entry): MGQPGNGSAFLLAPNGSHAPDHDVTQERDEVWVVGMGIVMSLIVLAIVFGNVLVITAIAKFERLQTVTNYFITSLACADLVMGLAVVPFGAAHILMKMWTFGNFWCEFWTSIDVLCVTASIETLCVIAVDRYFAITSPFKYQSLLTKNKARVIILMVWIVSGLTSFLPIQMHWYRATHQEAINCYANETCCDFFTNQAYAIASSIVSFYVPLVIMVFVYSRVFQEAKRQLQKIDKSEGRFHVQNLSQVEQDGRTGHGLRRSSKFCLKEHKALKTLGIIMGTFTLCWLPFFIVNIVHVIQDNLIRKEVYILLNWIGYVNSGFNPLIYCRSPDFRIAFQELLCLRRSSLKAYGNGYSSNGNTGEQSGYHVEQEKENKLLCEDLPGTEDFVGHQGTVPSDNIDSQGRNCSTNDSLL
Sequence of Sodium-dependent dopamine transporter (Q01959 whole entry): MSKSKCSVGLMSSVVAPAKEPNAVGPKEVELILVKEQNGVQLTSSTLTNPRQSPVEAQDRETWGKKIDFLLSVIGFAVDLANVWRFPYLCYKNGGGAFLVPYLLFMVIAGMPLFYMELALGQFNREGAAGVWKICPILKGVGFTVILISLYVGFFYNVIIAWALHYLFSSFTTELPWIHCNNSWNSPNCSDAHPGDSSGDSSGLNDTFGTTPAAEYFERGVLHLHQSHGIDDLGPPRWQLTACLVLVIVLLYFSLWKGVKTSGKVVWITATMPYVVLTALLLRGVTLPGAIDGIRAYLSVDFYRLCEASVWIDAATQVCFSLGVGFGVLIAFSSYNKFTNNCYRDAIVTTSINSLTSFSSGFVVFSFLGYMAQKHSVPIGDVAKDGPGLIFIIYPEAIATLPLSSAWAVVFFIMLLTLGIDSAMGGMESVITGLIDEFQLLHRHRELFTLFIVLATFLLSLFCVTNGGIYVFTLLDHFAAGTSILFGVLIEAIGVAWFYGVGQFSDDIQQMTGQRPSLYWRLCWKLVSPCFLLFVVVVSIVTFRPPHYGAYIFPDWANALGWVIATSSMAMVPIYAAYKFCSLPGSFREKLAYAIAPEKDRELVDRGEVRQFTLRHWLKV

SMILES	AC50 [1] [µM]	AC50 (Vasopressin V2 receptor) [µM]	AC50 (B2 bradykinin receptor) [µM]	AC50 [2] [µM]	AC50 [3] [µM]	AC50 [4] [µM]	AC50 [5] [µM]	AC50 (Endothelin-1 receptor) [µM]	AC50 (Histamine H2 receptor) [µM]	AC50 [6] [µM]	AC50 (Motilin receptor) [µM]	AC50 (Mu-type opioid receptor) [µM]	AC50 [7] [µM]	AC50 (D(3) dopamine receptor) [µM]	AC50 [8] [µM]
CCC1(CC)C(=O)NCC(C)C1=O (stereo not given) [METHYPRYLON]	> 30	> 30	> 30	> 30	> 30	> 30	> 30	> 30	> 30	> 30	> 30	> 30	> 30	> 30	–
O=C(O)/C=C/c1ccc(Cn2ccnc2)cc1 [OZAGREL]	> 30	> 30	> 30	> 30	> 30	> 30	> 30	> 30	> 30	> 30	> 30	> 30	> 30	> 30	–
CO/N=C(\C(=O)N[C@@H]1C(=O)N2C(C(=O)O)=C(CSc3nnnn3C)CS[C@H]12)c1csc(N)n1 [CEFMENOXIME]	> 30	> 30	> 30	> 30	> 30	–	> 30	> 30	> 30	> 30	> 30	> 30	> 30	–	–
Clc1ccc(CCCOCCCN2CCCCC2)cc1 [PITOLISANT]	6	> 30	> 30	> 30	15	> 30	> 30	> 30	> 30	> 30	> 30	> 30	8.5	> 30	–
O=C(NCCNCC(O)COc1ccc(O)cc1)N1CCOCC1 (stereo not given) [XAMOTEROL]	> 30	> 30	> 30	> 30	> 30	> 30	> 30	> 30	> 30	> 30	> 30	> 30	> 30	> 30	–
NCC(=O)CCC(=O)O [AMINOLEVULINIC ACID]	> 30	> 30	> 30	> 30	> 30	> 30	> 30	> 30	> 30	> 30	> 30	> 30	> 30	> 30	–
O=C(O)C1=C(CSc2nnnn2CS(=O)(=O)O)CS[C@@H]2[C@H](NC(=O)[C@H](O)c3ccccc3)C(=O)N12 [CEFONICID]	> 30	> 30	> 30	> 30	> 30	> 30	> 30	–	> 30	> 30	> 30	> 30	> 30	> 30	> 30
COC(=O)[C@H]1[C@H]2C[C@@H]3c4[nH]c5cc(OC)ccc5c4CCN3C[C@H]2C[C@@H](OC(=O)/C=C/c2cc(OC)c(OC)c(OC)c2)[C@@H]1OC [RESCINNAMINE]	> 10	> 10	> 10	> 10	> 10	> 30	> 10	–	> 30	> 10	> 10	> 30	18.9	> 30	> 10
Nc1nc(/C(=C/CC(=O)O)C(=O)N[C@@H]2C(=O)N3C(C(=O)O)=CCS[C@H]23)cs1 [CEFTIBUTEN]	> 30	> 30	> 30	> 30	> 30	> 30	> 30	–	> 30	> 30	> 30	> 30	> 30	> 30	> 30
CCN(CC)C(=O)N[C@H]1C[C@@H]2c3cccc4[nH]cc(c34)C[C@H]2N(C)C1 [TERGURIDE]	0.0031	> 30	> 30	> 30	> 30	> 30	> 30	> 30	15	0.48	> 30	> 30	> 30	0.006	–
C[C@H](CSC(=O)c1ccccc1)C(=O)N1C[C@@H](Sc2ccccc2)C[C@H]1C(=O)O [ZOFENOPRIL]	> 10	> 10	> 10	> 10	> 10	> 30	> 10	–	> 10	> 10	> 10	> 30	> 10	> 30	> 10
CCN1CCN(C(=O)N[C@@H](C(=O)N[C@@H]2C(=O)N3C(C(=O)O)=C(CSc4nnnn4C)CS[C@H]23)c2ccc(O)cc2)C(=O)C1=O [CEFOPERAZONE]	> 30	> 30	> 30	> 30	> 30	> 30	> 30	> 30	> 30	> 30	> 30	> 30	> 30	> 30	–
C[C@H](N)[C@H](O)c1cccc(O)c1 [METARAMINOL]	> 10	> 10	> 10	> 10	> 10	> 30	> 10	–	> 30	35	> 10	> 30	> 10	> 30	> 30
